In PubChem BioAssay AID2060897 (Molecular Pharmacology Branch, DTP, NCI, 2025):

Tested on: 966289-007-R4-J1-PDC complex spheroid viability
Test: Anticancer human tumor 966289-007-R4-J1-PDC patient-derived pancreatic adenocarcinoma cell line growth inhibition [RAS]
Settings: for IC50: curve of first compound; for viability, T/C: stronger effect = lower value
Summary of the method: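 Agents were tested in combination matrices in half-log decrements from a top concentration at or near clinical Cmax (10 microM if undetermined). Targets were multi-cell spheroids of tumour lines plus HUVEC and MSC stromal cells.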

[1] = second compound 0.00316 µM, first compound 0.000949 µM
[2] = second compound 0.00316 µM, first compound 0.003 µM
[3] = second compound 0.00316 µM, first compound 0.00949 µM
[4] = second compound 0.00316 µM, first compound 0.03 µM
[5] = second compound 0.00316 µM, first compound 0.0949 µM
[6] = second compound 0.00316 µM, first compound 0.3 µM
[7] = second compound 0.01 µM, first compound 0.000949 µM
[8] = second compound 0.01 µM, first compound 0.003 µM
[9] = second compound 0.01 µM, first compound 0.00949 µM
[10] = second compound 0.01 µM, first compound 0.03 µM
[11] = second compound 0.01 µM, first compound 0.0949 µM
[12] = second compound 0.01 µM, first compound 0.3 µM
[13] = second compound 0.0316 µM, first compound 0.000949 µM
[14] = second compound 0.0316 µM, first compound 0.003 µM
[15] = second compound 0.0316 µM, first compound 0.00949 µM
[16] = second compound 0.0316 µM, first compound 0.03 µM
[17] = second compound 0.0316 µM, first compound 0.0949 µM
[18] = second compound 0.0316 µM, first compound 0.3 µM
[19] = second compound 0.1 µM, first compound 0.000949 µM
[20] = second compound 0.1 µM, first compound 0.003 µM
[21] = second compound 0.1 µM, first compound 0.00949 µM
[22] = second compound 0.1 µM, first compound 0.03 µM
[23] = second compound 0.1 µM, first compound 0.0949 µM
[24] = second compound 0.1 µM, first compound 0.3 µM
[25] = second compound 0.316 µM, first compound 0.000949 µM
[26] = second compound 0.316 µM, first compound 0.003 µM
[27] = second compound 0.316 µM, first compound 0.00949 µM
[28] = second compound 0.316 µM, first compound 0.03 µM
[29] = second compound 0.316 µM, first compound 0.0949 µM
[30] = second compound 0.316 µM, first compound 0.3 µM
[31] = second compound 1 µM, first compound 0.000949 µM
[32] = second compound 1 µM, first compound 0.003 µM
[33] = second compound 1 µM, first compound 0.00949 µM
[34] = second compound 1 µM, first compound 0.03 µM
[35] = second compound 1 µM, first compound 0.0949 µM
[36] = second compound 1 µM, first compound 0.3 µM
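Further: spheroids exposed to agents for one week before readout.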
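Wherever viability, T/C is given: percent viability relative to DMSO vehicle control wells as 100%.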

`CC1(C)CCC(Nc2ncc(C(F)(F)F)c(-c3c[nH]c4c(P(C)(C)=O)c(C#N)ccc34)n2)CN1` (centres undefined) + C=CC(=O)N1CCN(c2nc(OCC3CCCN3C)nc3c(F)c(-c4nc(N)cc(C)c4C(F)(F)F)c(Cl)cc23)C(C)C1 was tested, and the IC50 (second compound 0.00316 µM) was 10.2 nM, the IC50 (second compound 0.01 µM) was 12.4 nM and the IC50 (second compound 0.0316 µM) was 6.79 nM. For the same molecule, the IC50 (second compound 0.1 µM) was 13.1 nM, the IC50 (second compound 0.316 µM) was 12.2 nM and the IC50 (second compound 1 µM) was 13.8 nM. The viability, T/C [1] was 103%, the viability, T/C [2] was 113% and the viability, T/C [3] was 52.6%. It also gave a viability, T/C [4] of 14%, a viability, T/C [5] of 9.67% and a viability, T/C [6] of 8.68%. It also gave a viability, T/C [7] of 102%, a viability, T/C [8] of 124% and a viability, T/C [9] of 61.4%. The viability, T/C [10] was 16.4%, the viability, T/C [11] was 8.51% and the viability, T/C [12] was 9.49%. It also gave a viability, T/C [13] of 97.4%, a viability, T/C [14] of 99.6% and a viability, T/C [15] of 30.1%. It also gave a viability, T/C [16] of 15.9%, a viability, T/C [17] of 10.5% and a viability, T/C [18] of 9.47%. For the same molecule, the viability, T/C [19] was 118%, the viability, T/C [20] was 117% and the viability, T/C [21] was 64%. For the same molecule, the viability, T/C [22] was 13.9%, the viability, T/C [23] was 9.91% and the viability, T/C [24] was 8.45%. For the same molecule, the viability, T/C [25] was 103%, the viability, T/C [26] was 108% and the viability, T/C [27] was 59.7%. The viability, T/C [28] was 15.8%, the viability, T/C [29] was 8.13% and the viability, T/C [30] was 8.27%. For the same molecule, the viability, T/C [31] was 113%, the viability, T/C [32] was 118% and the viability, T/C [33] was 67.2%. The viability, T/C [34] was 15.6%, the viability, T/C [35] was 9.94% and the viability, T/C [36] was 7.89%.

Molecule `CCc1c2c(nc3ccc(O)cc13)-c1cc3c(c(=O)n1C2)COC(=O)[C@]3(O)CC` + C=CC(=O)N1CCN(c2nc(OCC3CCCN3C)nc3c(F)c(-c4nc(N)cc(C)c4C(F)(F)F)c(Cl)cc23)C(C)C1 has an IC50 (second compound 0.00316 µM) of 1.5 nM, an IC50 (second compound 0.01 µM) of 1.38 nM and an IC50 (second compound 0.0316 µM) of 1.34 nM. The IC50 (second compound 0.1 µM) was 1.22 nM, the IC50 (second compound 0.316 µM) was 1.31 nM and the IC50 (second compound 1 µM) was 1.12 nM. The viability, T/C [1] was 82%, the viability, T/C [2] was 1.8% and the viability, T/C [3] was 0.98%. The viability, T/C [4] was 0.95%, the viability, T/C [5] was 0.87% and the viability, T/C [6] was 0.85%. The viability, T/C [7] was 72.8%, the viability, T/C [8] was 2.38% and the viability, T/C [9] was 0.97%. For the same molecule, the viability, T/C [10] was 1.12%, the viability, T/C [11] was 0.92% and the viability, T/C [12] was 0.91%. It also gave a viability, T/C [13] of 70.5%, a viability, T/C [14] of 2.51% and a viability, T/C [15] of 1.14%. The viability, T/C [16] was 0.91%, the viability, T/C [17] was 0.87% and the viability, T/C [18] was 0.86%. For the same molecule, the viability, T/C [19] was 63.4%, the viability, T/C [20] was 2.05% and the viability, T/C [21] was 1.09%. It also gave a viability, T/C [22] of 0.89%, a viability, T/C [23] of 0.99% and a viability, T/C [24] of 0.86%. The viability, T/C [25] was 68.3%, the viability, T/C [26] was 2.24% and the viability, T/C [27] was 1.14%. It also gave a viability, T/C [28] of 1.03%, a viability, T/C [29] of 0.87% and a viability, T/C [30] of 1.11%. The viability, T/C [31] was 58.1%, the viability, T/C [32] was 1.43% and the viability, T/C [33] was 1.03%. The viability, T/C [34] was 0.98%, the viability, T/C [35] was 0.91% and the viability, T/C [36] was 0.97%.
